Measurements: publication PMC10451018 (Protein Science : A Publication of the Protein Society, 2023)

Experiments:
[1] = target: T1, Azorhizobium caulinodans malic enzyme, AcME (Azorhizobium caulinodans, UniProt A8IFW0); experiment: spectrophotometric NADH formation at […] nm; format: biochemical; conditions: L-malate as co-substrate
T1 sequence (A8IFW0 1-759): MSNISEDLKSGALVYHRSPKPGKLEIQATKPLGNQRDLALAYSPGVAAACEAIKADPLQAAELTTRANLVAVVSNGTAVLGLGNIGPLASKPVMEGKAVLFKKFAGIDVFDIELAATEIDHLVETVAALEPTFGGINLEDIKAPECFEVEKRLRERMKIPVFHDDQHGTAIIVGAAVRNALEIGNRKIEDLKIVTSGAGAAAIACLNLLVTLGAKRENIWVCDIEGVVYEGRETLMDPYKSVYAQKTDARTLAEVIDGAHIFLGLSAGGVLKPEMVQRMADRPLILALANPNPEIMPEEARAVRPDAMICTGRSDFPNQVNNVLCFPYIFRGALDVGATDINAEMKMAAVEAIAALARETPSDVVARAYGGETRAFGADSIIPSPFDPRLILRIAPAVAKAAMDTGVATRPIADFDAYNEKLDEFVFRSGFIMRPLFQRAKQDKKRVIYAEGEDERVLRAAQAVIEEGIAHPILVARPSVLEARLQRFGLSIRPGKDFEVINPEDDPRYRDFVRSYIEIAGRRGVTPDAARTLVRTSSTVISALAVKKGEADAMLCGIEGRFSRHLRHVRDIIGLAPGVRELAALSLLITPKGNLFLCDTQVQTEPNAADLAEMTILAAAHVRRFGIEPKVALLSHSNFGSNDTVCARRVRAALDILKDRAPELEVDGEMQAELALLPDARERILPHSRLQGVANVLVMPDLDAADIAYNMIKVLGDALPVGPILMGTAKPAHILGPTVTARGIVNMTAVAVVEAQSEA

[2] = target: T2, Aeropyrum pernix malate dehydrogenase, ApMDH (Aeropyrum pernix, UniProt Q9YEA1); experiment: spectrophotometric NADH formation at […] nm; format: biochemical; conditions: L-malate as co-substrate
T2 sequence (Q9YEA1 1-308): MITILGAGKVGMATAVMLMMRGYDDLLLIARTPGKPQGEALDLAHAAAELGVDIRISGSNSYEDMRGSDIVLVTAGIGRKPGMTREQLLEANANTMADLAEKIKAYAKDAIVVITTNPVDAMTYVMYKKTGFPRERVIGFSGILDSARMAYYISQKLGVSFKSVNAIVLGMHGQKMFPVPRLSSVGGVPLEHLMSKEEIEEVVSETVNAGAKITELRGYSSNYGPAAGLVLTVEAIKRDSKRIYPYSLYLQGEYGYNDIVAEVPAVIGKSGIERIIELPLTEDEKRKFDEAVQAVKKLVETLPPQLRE

## NC(=O)c1ccc[n+]([C@@H]2O[C@H](COP(=O)(O)OP(=O)(O)OC[C@H]3O[C@@H](n4cnc5c(N)ncnc54)[C@H](O)[C@@H]3O)[C@@H](O)[C@H]2O)c1 [NAD^+]
[1]
  spectrophotometric NADH formation at 340 nm: oxidation of L‐malate was accompanied by reduction of NAD^+ to NADH
[2]
  spectrophotometric NADH formation at 340 nm: oxidation of L‐malate was accompanied by reduction of NAD^+ to NADH
